The target of data set [1] is α7-subtype of nicotinic receptors (Rattus norvegicus, UniProt Q05941). In words: biochemical. In kind it is binding.

Where a name gives a salt, the structure may show the parent alone.

Sequence of α7-subtype of nicotinic receptors (Q05941 23-502): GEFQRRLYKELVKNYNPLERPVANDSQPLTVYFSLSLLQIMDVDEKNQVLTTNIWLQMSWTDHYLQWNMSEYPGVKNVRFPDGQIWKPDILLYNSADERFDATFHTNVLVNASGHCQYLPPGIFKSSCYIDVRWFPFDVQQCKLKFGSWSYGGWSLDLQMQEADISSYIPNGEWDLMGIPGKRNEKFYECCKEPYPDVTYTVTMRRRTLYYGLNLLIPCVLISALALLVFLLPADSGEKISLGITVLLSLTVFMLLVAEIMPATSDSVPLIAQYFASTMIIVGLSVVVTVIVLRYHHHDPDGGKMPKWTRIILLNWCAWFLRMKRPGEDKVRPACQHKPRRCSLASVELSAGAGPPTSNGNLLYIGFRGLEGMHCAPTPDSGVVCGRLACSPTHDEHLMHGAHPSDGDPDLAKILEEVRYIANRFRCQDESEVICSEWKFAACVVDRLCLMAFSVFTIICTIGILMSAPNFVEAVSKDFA

Consider `CN1C2CCCC1CN(c1ccc(-c3ccccc3)nn1)C2` (as salt: fumaric acid salt) [Compound A1, 9-Methyl-3-(6-phenyl-pyridazin-3-yl)-3,9-diaza-bicyclo[3.3.1]nonane], for which the melting point (as a rule, the temperature, or range, at which the solid turns liquid) lay within 187 to 188 °C.
As for `CN1C2CCCC1CN(c1ccc(-c3ccccc3)nn1)C2` [Compound A1, 9-Methyl-3-(6-phenyl-pyridazin-3-yl)-3,9-diaza-bicyclo[3.3.1]nonane], the IC50 (commonly the concentration needed to halve the response being measured) in data set [1] was < 1000 nM.
Same read-out and setting: then `CN1C2CCCC1CN(c1ccc(-c3ccsc3)nn1)C2` [Compound C1], with < 1000 nM; and `CCN1C2CCCC1CN(c1ccc(-c3ccccc3)nn1)C2` [Compound D1, 9-Ethyl-3-(6-phenyl-pyridazin-3-yl)-3,9-diaza-bicyclo[3.3.1]nonane], with < 1000 nM.

The values are drawn from patent US8173658B2 (priority 2005, dated 2012).
